{"source": "paper PMC3792051", "about": "“Polyenylpyrrole Derivatives Inhibit NLRP3 Inflammasome Activation and Inflammatory Mediator Expression by Reducing Reactive Oxygen Species Production and Mitogen-Activated Protein Kinase Activation” (PLoS ONE, 2013)", "assay_type_in_all_cases": "cell-based, murine", "key": {"[1]": {"test_system": "LPS-activated RAW 264.7 macrophages", "assay": "Intracellular ROS production (DCF fluorescence), LPS-induced", "details": "RAW 264.7, 30 min pretreatment; compound 1h 20 µM, NAC 10 mM", "protocol": "Intracellular ROS production was measured by detecting the fluorescence intensity of the 2’, 7’-dichlorofluorescein, the oxidation product of 2’, 7’-dichlorofluorescein diacetate (Molecular Probes, Eugene, OR). In one study, RAW 264.7 macrophages (5 × 10^5/ml; 0.1 ml) were incubated with vehicle, compound 1h (20 µM), or NAC (10 mM) for 30 min, then 2’, 7’-dichlorofluorescein diacetate (2 µM) was added for 30 min, then LPS was added for the indicated time. In another, J774A.1 macrophages (5 × 10^5/ml; 0.1 ml) were incubated with LPS (1 µg/ml) for 6 h, then vehicle, compound 1h (20 µM), or DPI (25 µM) was added for 30 min. 2’, 7’-dichlorofluorescein diacetate (2 µM) was then added for 30 min before incubation with ATP (5 mM) for the indicated time; while, in another, the order of addition of compound1h/DPI and LPS was reversed. The fluorescence intensity of 2’, 7’-dichlorofluorescein was detected at an excitation wavelength of 485 nm and an emission wavelength of 530 nm on a microplate absorbance reader (Bio-Rad Laboratories, Inc).\nTo test whether compound 1h exerted its anti-inflammatory effect on LPS-activated cells by downregulation of ROS production, intracellular ROS production in LPS-activated RAW 264.7 macrophages was measured.\nFigure 5 Effect of compound 1h on ROS production and MAPK phosphorylation in LPS-activated macrophages. […]"}, "[2]": {"test_system": "LPS-activated RAW 264.7 macrophages", "assay": "iNOS and COX-2 expression by Western blot", "details": "30 min pretreatment, LPS 24 h", "protocol": "Cells were washed twice with ice-cold phosphate-buffered saline (PBS) and lysed on ice for 5 min with lysis buffer (20 mM Tris-HCl, pH 7.5, 150 mM NaCl, 1 mM Na 2EDTA, 1 mM EGTA, 1% Triton X-100, 2.5 mM sodium pyrophosphate, 1 mM beta-glycerophosphate, 1 mM Na 3VO4, 1 µg/ml of leupeptin, 1 mM PMSF, protease inhibitor cocktail). The lysate was then centrifuged at 12,000 x g at 4 °C for 10 min and the pellet discarded. Proteins in the supernatant were separated by SDS-PAGE and electrotransferred to a PVDF membrane (EMD Millipore Corporation), which was then blocked by incubation for 1 h at room temperature in blocking buffer [(5% nonfat milk in PBS containing 0.1% Tween 20 (PBST)], then incubated for 2 h at room temperature with the primary antibody diluted in blocking buffer. After three washes in PBST, the membrane was incubated for 1 h at room temperature with an appropriate HRP-conjugated secondary antibody diluted in blocking buffer and developed using an enhanced chemiluminescence Western blot detection system (EMD Millipore Corporation).\n(§1) To investigate the inhibitory effect of compounds 1h, 1i, and 1n on the LPS-induced inflammatory response, NO levels in the supernatants of RAW 264.7 macrophages incubated with DMSO (vehicle) or compound 1h, 1i, or 1n for 30 min before, and during, incubation for 24 h with LPS (1 µg/ml) were measured by the Griess reaction. […] We next investigated their effect on the expression of iNOS, the NO producing enzyme, using Western blots.\n(§2) Figure 2 Effect of polyenylpyrrole derivatives on the expression of inflammatory mediators in LPS-stimulated RAW 264.7 macrophages. In (A) and (C), the cells (5 × 10^5/ml; 1 ml) were incubated for 30 min with 2.5-40 µM compound 1h, 1i, or 1n or DMSO (vehicle), then LPS (1 µg/ml) was added and incubation continued for 24 h, then NO (A) or IL-6 or TNF-α (C) in the culture medium was assayed by the Griess reaction or ELISA, respectively. In (B), cells (5 × 10^5/ml; 1 ml) were pretreated for 30 min with 2.5-40 µM compound 1h or DMSO, then LPS (1 µg/ml) was added and incubation continued for 24 h, then expression of iNOS and COX-2 was measured by Western blotting. The fold increase is the intensity of the band of interest divided by that of the actin band normalized to the corresponding value for the 0 LPS/0 inhibitor control."}, "[3]": {"test_system": "LPS-activated RAW 264.7 macrophages", "assay": "IL-6 and TNF-α secretion by ELISA", "protocol": "The effects of the test samples on IL-1β, TNF-α, and IL-6 production were measured by ELISA according to the manufacturer’s instructions. In brief, 50 µl of biotinylated antibody reagent and 50 µl of supernatant were added to a stripwell plate precoated with anti-mouse IL-1β, TNF-α, or IL-6 antibodies, which was then incubated at room temperature for 2 h. After washing the plate three times with washing buffer, 100 µl of diluted streptavidin-HRP concentrate was added to each well and the plate incubated at room temperature for 30 min. The washing process was repeated, then 100 µl of a premixed tetramethylbenzidine substrate solution was added to each well and the plate incubated at room temperature in the dark for 30 min. After addition of 100 µl of stop solution to each well, the absorbance at 450 nm of each well was measured on a microplate reader.\nas §1, §2"}, "[4]": {"details": "RAW 264.7, 2.5-40 µM, LPS 1 µg/ml 24 h"}}}
{"smiles": "O=c1cc(O)cc(/C=C/C=C/C=C/C=C/c2[nH]ccc2Cl)o1", "note": "[compound 1h]", "values": [{"measurement": "LPS-stimulated ROS production", "setting": "[1]", "result": "reduced LPS-stimulated ROS production"}, {"measurement": "COX-2 expression", "setting": "[2]; 0-40 µM", "result": "did not affect expression of COX-2"}, {"measurement": "LPS-induced iNOS expression", "setting": "[2]; 0-40 µM", "result": "reduced LPS-induced iNOS expression"}, {"measurement": "Concentration at which reduction of LPS-induced iNOS expression is significant", "setting": "[2]; Western blot", "result": "5 to 40", "unit": "µM"}, {"measurement": "IL-6 production by LPS-activated cells", "setting": "[3]; [4]", "result": "significantly decreased IL-6 production by LPS-activated cells in a dose-dependent manner"}, {"measurement": "TNF-α secretion by LPS-activated cells", "setting": "[3]; [4]", "result": "only slightly and non-significantly reduced"}, {"measurement": "Background levels of IL-6 and TNF-α in non-stimulated macrophages", "setting": "[3]; RAW 264.7, no LPS (data not shown)", "result": "none of the three compounds altered background levels of IL-6 and TNF-α"}]}
